Measured values: patent US9409882B2, “Pyridine derivatives” (Hoffmann-La Roche Inc., priority 2012, dated 2016)

Tests used:
human Cat L = human Cat L (Homo sapiens (Human), UniProt P07711); experiment: Cathepsin enzyme inhibition assay (fluorogenic peptide substrate), human Cat L; type: biochemical; conditions: human Cat L 1 nM, substrate Z-Val-Val-Arg-AMC 20 μM, pH 6.5
Procedure: (§1) Cathepsin Enzyme Inhibition Assay
(§2) Enzyme activity is measured by observing the increase in fluorescence intensity caused by cleavage of a peptide substrate containing a fluorophore whose emission is quenched in the intact peptide.
(§3) Assay buffer: 100 mM potassium phosphate pH 6.5, EDTA-Na 5 mM, Triton X-100 0.001%, DTT 5 mM.
(§4) Enzymes (all at 1 nM): human and mouse Cathepsin S, Cat K, Cat B, Cat L.
(§5) Substrate (20 μM): Z-Val-Val-Arg-AMC, except for Cat K which uses Z-Leu-Arg-AMC (both from Bachem).
(§6) AMC=7-Amino-4-Methyl-Coumarin.
(§7) Excitation 360 nm, Emission 465 nm.
(§8) Enzyme is added to the substance dilutions in 96-well microtitre plates and the reaction is started with substrate. […] IC50 are calculated by standard methods.
(§9) Inhibition of human Cat S, mouse Cat S, human Cat K, human Cat B, human Cat L and mouse Cat L have been measured separately.

human Cathepsin S = human Cathepsin S (Homo sapiens (Human), UniProt P25774); experiment: Cathepsin enzyme inhibition assay (fluorogenic peptide substrate), human Cat S; type: biochemical; conditions: human Cat S 1 nM, substrate Z-Val-Val-Arg-AMC 20 μM, pH 6.5
Chain of human Cathepsin S (P25774 115-331): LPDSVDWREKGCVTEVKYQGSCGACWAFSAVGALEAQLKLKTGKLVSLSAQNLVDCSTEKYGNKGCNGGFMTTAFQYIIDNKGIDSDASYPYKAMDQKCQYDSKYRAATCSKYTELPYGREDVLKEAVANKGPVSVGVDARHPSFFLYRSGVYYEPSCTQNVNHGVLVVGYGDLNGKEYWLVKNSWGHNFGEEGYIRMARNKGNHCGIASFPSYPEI
Procedure: as §1, §2, §3, §4, §5, §6, §7, §8, §9

Chain of human Cat L (P07711 114-333): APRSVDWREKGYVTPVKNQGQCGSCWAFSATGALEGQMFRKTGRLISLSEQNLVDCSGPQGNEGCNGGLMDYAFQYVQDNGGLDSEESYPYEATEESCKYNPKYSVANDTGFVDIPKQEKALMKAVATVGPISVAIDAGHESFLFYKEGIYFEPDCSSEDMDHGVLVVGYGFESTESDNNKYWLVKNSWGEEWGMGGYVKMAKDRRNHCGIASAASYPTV

Structure (SMILES) | IC50 (human Cat L) [nM] | IC50 (human Cathepsin S) [nM]
N#CC1(NC(=O)[C@@H]2C[C@@H](S(=O)(=O)c3ccc(C(F)(F)F)cn3)CN2C(=O)C2(c3ncc(Cl)cc3F)CC2)CC1 [Example 24, (2S,4R)-1-[1-(5-Chloro-3-fluoro-pyridin-2-yl)-cyclopropanecarbonyl]-4-(5-trifluoromethyl-pyridine-2-sulfonyl)-pyrrolidine-2-carboxylic acid (1-cyano-cyclopropyl)-amide] | 2690 | 6.24
N#CC1(NC(=O)[C@@H]2C[C@@H](Sc3ccccn3)CN2C(=O)C2(c3ncc(Cl)cc3F)CC2)CC1 [Example 12, (2S,4R)-1-[1-(5-Chloro-3-fluoro-pyridin-2-yl)-cyclopropanecarbonyl]-4-(pyridin-2-ylsulfanyl)-pyrrolidine-2-carboxylic acid (1-cyano-cyclopropyl)-amide] | 8230 | 594
N#CC1(NC(=O)[C@@H]2C[C@@H](S(=O)(=O)c3ccc(OCC(F)(F)F)cc3Cl)CN2C(=O)C2(c3ccc(Cl)cn3)CC2)CC1 [Example 3, (2S,4R)-1-[1-(5-Chloro-pyridin-2-yl)-cyclopropanecarbonyl]-4-[2-chloro-4-(2,2,2-trifluoro-ethoxy)-benzenesulfonyl]-pyrrolidine-2-carboxylic acid (1-cyano-cyclopropyl)-amide] | 429 | 0.825
N#CC1(NC(=O)[C@@H]2C[C@@H](S(=O)(=O)c3ccccc3Cl)CN2C(=O)C2(c3ccc(Cl)cn3)CC2)CC1 [Example 2, (2S,4R)-4-(2-Chloro-benzenesulfonyl)-1-[1-(5-chloro-pyridin-2-yl)-cyclopropanecarbonyl]-pyrrolidine-2-carboxylic acid (1-cyano-cyclopropyl)-amide] | 340 | 0.492
N#CC1(NC(=O)[C@@H]2C[C@@H](S(=O)(=O)c3ccc(-c4ccnc(Cl)c4)cc3Cl)CN2C(=O)C2(c3ncc(Cl)cc3F)CC2)CC1 [Example 32, (2S,4R)-4-[2-Chloro-4-(2-chloro-pyridin-4-yl)-benzenesulfonyl]-1-[1-(5-chloro-3-fluoro-pyridin-2-yl)-cyclopropanecarbonyl]-pyrrolidine-2-carboxylic acid (1-cyano-cyclopropyl)-amide] | 112 | 0.686
N#CC1(NC(=O)[C@@H]2C[C@@H](S(=O)(=O)c3ccccc3-n3cccn3)CN2C(=O)C2(c3ncc(I)cc3F)CC2)CC1 [Example 43, (2S,4R)-1-[1-(3-Fluoro-5-iodo-pyridin-2-yl)-cyclopropanecarbonyl]-4-(2-pyrazol-1-yl-benzenesulfonyl)-pyrrolidine-2-carboxylic acid (1-cyano-cyclopropyl)-amide] | 90.6 | 17
N#CC1(NC(=O)[C@@H]2C[C@@H](Sc3ncccc3Cl)CN2C(=O)C2(c3ncc(Cl)cc3F)CC2)CC1 [Example 10, (2S,4R)-1-[1-(5-Chloro-3-fluoro-pyridin-2-yl)-cyclopropanecarbonyl]-4-(3-chloro-pyridin-2-ylsulfanyl)-pyrrolidine-2-carboxylic acid (1-cyano-cyclopropyl)-amide] |  | 964
N#CC1(NC(=O)[C@@H]2C[C@@H](S(=O)(=O)c3ccccc3-n3ccnn3)CN2C(=O)C2(c3ncc(I)cc3F)CC2)CC1 [Example 44, (2S,4R)-1-[1-(3-Fluoro-5-iodo-pyridin-2-yl)-cyclopropanecarbonyl]-4-(2-[1,2,3]triazol-1-yl-benzenesulfonyl)-pyrrolidine-2-carboxylic acid (1-cyano-cyclopropyl)-amide] | 1560 | 2.37
N#CC1(NC(=O)[C@@H]2C[C@@H](S(=O)(=O)c3ncccc3Cl)CN2C(=O)C2(c3ncc(Cl)cc3F)CC2)CC1 [Example 14, (2S,4R)-1-[1-(5-Chloro-3-fluoro-pyridin-2-yl)-cyclopropanecarbonyl]-4-(3-chloropyridine-2-sulfonyl)-pyrrolidine-2-carboxylic acid (1-cyano-cyclopropyl)-amide] | 2120 | 
Cc1ncccc1-c1ccc(S(=O)(=O)[C@@H]2C[C@@H](C(=O)NC3(C#N)CC3)N(C(=O)C3(c4ncc(C(F)(F)F)cc4F)CC3)C2)c(Cl)c1 [Example 35, (2S,4R)-4-[2-Chloro-4-(2-methyl-pyridin-3-yl)-benzenesulfonyl]-1-[1-(3-fluoro-5-trifluoromethyl-pyridin-2-yl)-cyclopropanecarbonyl]-pyrrolidine-2-carboxylic acid (1-cyano-cyclopropyl)-amide] | 58.9 | 0.768
N#CC1(NC(=O)[C@@H]2C[C@@H](Sc3ccc(Cl)cn3)CN2C(=O)C2(c3ncc(Cl)cc3F)CC2)CC1 [Example 17, (2S,4R)-1-[1-(5-Chloro-3-fluoro-pyridin-2-yl)-cyclopropanecarbonyl]-4-(5-chloro-pyridin-2-ylsulfanyl)-pyrrolidine-2-carboxylic acid (1-cyano-cyclopropyl)-amide] | 5650 | 264
Cc1cccc(S(=O)(=O)[C@@H]2C[C@@H](C(=O)NC3(C#N)CC3)N(C(=O)C3(c4ncc(Cl)cc4F)CC3)C2)n1 [Example 23, (2S,4R)-1-[1-(5-Chloro-3-fluoro-pyridin-2-yl)-cyclopropanecarbonyl]-4-(6-methylpyridine-2-sulfonyl)-pyrrolidine-2-carboxylic acid (1-cyano-cyclopropyl)-amide] | 5640 | 2.8
Cn1cc(-c2ccc(S(=O)(=O)[C@@H]3C[C@@H](C(=O)NC4(C#N)CC4)N(C(=O)C4(c5ncc(Cl)cc5Cl)CC4)C3)c(Cl)c2)cn1 [Example 40, (2S,4R)-4-[2-Chloro-4-(1-methyl-1H-pyrazol-4-yl)-benzenesulfonyl]-1-[1-(3,5-dichloro-pyridin-2-yl)-cyclopropanecarbonyl]-pyrrolidine-2-carboxylic acid (1-cyano-cyclopropyl)-amide] |  | 0.703
Cc1cccc(S[C@@H]2C[C@@H](C(=O)NC3(C#N)CC3)N(C(=O)C3(c4ncc(Cl)cc4F)CC3)C2)n1 [Example 19, (2S,4R)-1-[1-(5-Chloro-3-fluoro-pyridin-2-yl)-cyclopropanecarbonyl]-4-(6-methyl-pyridin-2-ylsulfanyl)-pyrrolidine-2-carboxylic acid (1-cyano-cyclopropyl)-amide] | 4610 | 
N#CC1(NC(=O)[C@@H]2C[C@@H](S(=O)(=O)c3cccc(-c4ccc(F)cc4)c3)CN2C(=O)C2(c3ncc(Cl)cc3F)CC2)CC1 [Example 13, (2S,4R)-1-[1-(5-Chloro-3-fluoro-pyridin-2-yl)-cyclopropanecarbonyl]-4-(4′-fluorobiphenyl-3-sulfonyl)-pyrrolidine-2-carboxylic acid (1-cyano-cyclopropyl)-amide] | 247 | 

More lines, in order of falling IC50 (human Cat L), values ahead:

IC50 (human Cat L) [nM] | IC50 (human Cathepsin S) [nM] | Structure (SMILES)
52.4 |  | N#CC1(NC(=O)[C@@H]2C[C@@H](Sc3cc(C(F)(F)F)ccc3Cl)CN2C(=O)C2(c3ncc(Cl)cc3F)CC2)CC1 [Example 26, (2S,4R)-1-[1-(5-Chloro-3-fluoro-pyridin-2-yl)-cyclopropanecarbonyl]-4-(2-chloro-5-trifluoromethyl-phenylsulfanyl)-pyrrolidine-2-carboxylic acid (1-cyano-cyclopropyl)-amide]
31 | 0.7 | N#CC1(NC(=O)[C@@H]2C[C@@H](S(=O)(=O)c3ccccc3F)CN2C(=O)C2(c3ncc(Cl)cc3F)CC2)CC1 [Example 42, (2S,4R)-1-[1-(5-Chloro-3-fluoro-pyridin-2-yl)-cyclopropanecarbonyl]-4-(2-fluoro-benzenesulfonyl)-pyrrolidine-2-carboxylic acid (1-cyano-cyclopropyl)-amide]
28.7 | 0.375 | Cn1cc(-c2ccc(S(=O)(=O)[C@@H]3C[C@@H](C(=O)NC4(C#N)CC4)N(C(=O)C4(c5ncc(Cl)cc5F)CC4)C3)c(Cl)c2)cn1 [Example 33, (2S,4R)-1-[1-(5-Chloro-3-fluoro-pyridin-2-yl)-cyclopropanecarbonyl]-4-[2-chloro-4-(1-methyl-1H-pyrazol-4-yl)-benzenesulfonyl]-pyrrolidine-2-carboxylic acid (1-cyano-cyclopropyl)-amide]
25.5 | 0.734 | COc1ccc(S(=O)(=O)[C@@H]2C[C@@H](C(=O)NC3(C#N)CC3)N(C(=O)C3(c4ncc(Br)cc4F)CC3)C2)c(Cl)c1 [Example 7, (2S,4R)-1-[1-(5-Bromo-3-fluoro-pyridin-2-yl)-cyclopropanecarbonyl]-4-(2-chloro-4-methoxy-benzenesulfonyl)-pyrrolidine-2-carboxylic acid (1-cyano-cyclopropyl)-amide]
11.9 | 0.393 | COc1ccc(S(=O)(=O)[C@@H]2C[C@@H](C(=O)NC3(C#N)CC3)N(C(=O)C3(c4ncc(Cl)cc4F)CC3)C2)c(Cl)c1 [Example 4, (2S,4R)-1-[1-(5-Chloro-3-fluoro-pyridin-2-yl)-cyclopropanecarbonyl]-4-(2-chloro-4-methoxy-benzenesulfonyl)-pyrrolidine-2-carboxylic acid (1-cyano-cyclopropyl)-amide]
9.8 | 0.382 | Cc1ncccc1-c1ccc(S(=O)(=O)[C@@H]2C[C@@H](C(=O)NC3(C#N)CC3)N(C(=O)C3(c4ncc(I)cc4F)CC3)C2)c(Cl)c1 [Example 36, (2S,4R)-4-[2-Chloro-4-(2-methyl-pyridin-3-yl)-benzenesulfonyl]-1-[1-(3-fluoro-5-iodo-pyridin-2-yl)-cyclopropanecarbonyl]-pyrrolidine-2-carboxylic acid (1-cyano-cyclopropyl)-amide]
